Assay results taken from patent US10287295B2, “TGF-β inhibitors” (Rigel Pharmaceuticals, Inc., priority 2015, dated 2019).

Columns and labels:
[1] = system: TGF-β signaling (TGF-β pSMAD, MPC-11); assay: AlphaScreen SureFire SMAD3 (p-Ser423/425) assay, inhibition of TGF-β signaling; format: cell-based; conditions: Mus musculus, MPC-11, inhibition of TGF-β signaling, p-SMAD3 readout
[2] = system: GDF8 signaling (GDF pSMAD, MPC11); assay: AlphaScreen SureFire SMAD3 (p-Ser423/425) assay, inhibition of GDF8 signaling; format: cell-based; conditions: Mus musculus, MPC-11, inhibition of GDF8 signaling, p-SMAD3 readout

IC50 [1] [µM] | IC50 [2] [µM] | SMILES
1.37 | 0.28 | CCc1nc(-c2ccc(F)c(C)c2)c(-c2ccc3nccnc3c2)[nH]1 [Compound 112, 6-(2-Ethyl-4-(4-fluoro-3-methylphenyl)-1H-imidazol-5-yl)quinoxaline]
3.11 | 0.46 | CCc1nc(-c2cccc(C)c2)c(-c2ccc3[nH]ncc3c2)[nH]1 [Compound 113, 5-(2-Ethyl-4-(m-tolyl)-1H-imidazol-5-yl)-1H-indazole]
1.13 | 0.18 | CCc1nc(-c2cccc(C)c2)c(-c2ccc3cn[nH]c3c2)[nH]1 [Compound 114, 6-(2-Ethyl-4-(m-tolyl)-1H-imidazol-5-yl)-1H-indazole]
0.75 | 0.16 | CCc1nc(-c2cccc(C)c2)c(-c2ccc3ncnn3c2)[nH]1 [Compound 115, 6-(2-Ethyl-4-(m-tolyl)-1H-imidazol-5-yl)-[1,2,4]triazolo[1,5-a]pyridine]
1.52 | 0.28 | CCc1nc(-c2cccc(C)c2)c(-c2ccc3ncsc3c2)[nH]1 [Compound 116, 6-(2-Ethyl-4-(m-tolyl)-1H-imidazol-5-yl)benzo[d]thiazole]
2.18 | 0.33 | CCc1nc(-c2cccc(C)c2)c(-c2ccc3nccn3c2)[nH]1 [Compound 117, 6-(2-Ethyl-4-(m-tolyl)-1H-imidazol-5-yl)imidazo[1,2-a]pyridine]
1.39 | 0.23 | CCc1nc(-c2cccc(C)c2)c(-c2ccc3nccnc3c2)[nH]1 [Compound 118, 6-(2-Ethyl-4-(m-tolyl)-1H-imidazol-5-yl)quinoxaline]
4.74 | 0.41 | CCc1nc(-c2ccc(F)cc2)c(-c2ccc3[nH]ncc3c2)[nH]1 [Compound 119, 5-(2-Ethyl-4-(4-fluorophenyl)-1H-imidazol-5-yl)-1H-indazole]
8.16 | 0.47 | CCc1nc(-c2ccc(F)cc2)c(-c2ccc3cn[nH]c3c2)[nH]1 [Compound 120, 6-(2-Ethyl-4-(4-fluorophenyl)-1H-imidazol-5-yl)-1H-indazole]
2.07 | 0.46 | CCc1nc(-c2ccc(F)cc2)c(-c2ccc3ncnn3c2)[nH]1 [Compound 121, 6-(2-Ethyl-4-(4-fluorophenyl)-1H-imidazol-5-yl)-[1,2,4]triazolo[1,5-a]pyridine]
4.53 | 0.58 | CCc1nc(-c2ccc(F)cc2)c(-c2ccc3ncsc3c2)[nH]1 [Compound 122, 6-(2-Ethyl-4-(4-fluorophenyl)-1H-imidazol-5-yl)benzo[d]thiazole]
9.37 | 0.74 | CCc1nc(-c2ccc(F)cc2)c(-c2ccc3nccn3c2)[nH]1 [Compound 123, 6-(2-Ethyl-4-(4-fluorophenyl)-1H-imidazol-5-yl)imidazo[1,2-a]pyridine]
1.34 | 0.54 | CCc1nc(-c2cccc(Cl)c2)c(-c2ccc3[nH]ncc3c2)[nH]1 [Compound 124, 5-(4-(3-Chlorophenyl)-2-ethyl-1H-imidazol-5-yl)-1H-indazole]
0.12 | 0.05 | CCc1nc(-c2cccc(Cl)c2)c(-c2ccc3ncnn3c2)[nH]1 [Compound 125, 6-(4-(3-Chlorophenyl)-2-ethyl-1H-imidazol-5-yl)-[1,2,4]triazolo[1,5-a]pyridine]
0.34 | 0.09 | CCc1nc(-c2cccc(Cl)c2)c(-c2ccc3ncsc3c2)[nH]1 [Compound 126, 6-(4-(3-Chlorophenyl)-2-ethyl-1H-imidazol-5-yl)benzo[d]thiazole]
0.57 | 0.19 | CCc1nc(-c2cccc(Cl)c2)c(-c2ccc3nccn3c2)[nH]1 [Compound 127, 6-(4-(3-Chlorophenyl)-2-ethyl-1H-imidazol-5-yl)imidazo[1,2-a]pyridine]
1.48 | 0.46 | CCc1nc(-c2cccc(Cl)c2)c(-c2ccc3ncccc3c2)[nH]1 [Compound 128, 6-(4-(3-Chlorophenyl)-2-ethyl-1H-imidazol-5-yl)quinoline]
1.34 | 0.29 | CCc1nc(-c2cccc(Cl)c2)c(-c2ccc3nccnc3c2)[nH]1 [Compound 129, 6-(4-(3-Chlorophenyl)-2-ethyl-1H-imidazol-5-yl)quinoxaline]
2.32 | 0.65 | CCc1nc(-c2ccc(F)c(F)c2)c(-c2ccc3[nH]ncc3c2)[nH]1 [Compound 130, 5-(4-(3,4-Difluorophenyl)-2-ethyl-1H-imidazol-5-yl)-1H-indazole]
3.91 | 0.92 | CCc1nc(-c2ccc(F)c(F)c2)c(-c2ccc3cn[nH]c3c2)[nH]1 [Compound 131, 6-(4-(3,4-Difluorophenyl)-2-ethyl-1H-imidazol-5-yl)-1H-indazole]
1.39 | 0.55 | CCc1nc(-c2ccc(F)c(F)c2)c(-c2ccc3ncnn3c2)[nH]1 [Compound 132, 6-(4-(3,4-Difluorophenyl)-2-ethyl-1H-imidazol-5-yl)-[1,2,4]triazolo[1,5-a]pyridine]
2.21 | 0.36 | CCc1nc(-c2ccc(F)c(F)c2)c(-c2ccc3ncsc3c2)[nH]1 [Compound 133, 6-(4-(3,4-Difluorophenyl)-2-ethyl-1H-imidazol-5-yl)benzo[d]thiazole]
2.54 | 0.87 | CCc1nc(-c2ccc(F)c(F)c2)c(-c2ccc3nccn3c2)[nH]1 [Compound 134, 6-(4-(3,4-Difluorophenyl)-2-ethyl-1H-imidazol-5-yl)imidazo[1,2-a]pyridine]

The next lines start with the molecule.

SMILES | IC50 [1] [µM] | IC50 [2] [µM]
Cc1nc(-c2cc(F)c(F)c(F)c2)c(-c2ccc3ncnn3c2)[nH]1 [Compound 92, 6-(2-Methyl-4-(3,4,5-trifluorophenyl)-1H-imidazol-5-yl)-[1,2,4]triazolo[1,5-a]pyridine] | 2.27 | 0.47
Cc1nc(-c2cc(F)c(F)c(F)c2)c(-c2ccc3ncsc3c2)[nH]1 [Compound 93, 6-(2-Methyl-4-(3,4,5-trifluorophenyl)-1H-imidazol-5-yl)benzo[d]thiazole] | 2.34 | 0.3
Cc1nc(-c2cc(F)c(F)c(F)c2)c(-c2ccc3nccn3c2)[nH]1 [Compound 94, 6-(2-Methyl-4-(3,4,5-trifluorophenyl)-1H-imidazol-5-yl)imidazo[1,2-a]pyridine] | 2.91 | 0.58
Cc1nc(-c2cc(F)c(F)c(F)c2)c(-c2ccc3ncccc3c2)[nH]1 [Compound 95, 6-(2-Methyl-4-(3,4,5-trifluorophenyl)-1H-imidazol-5-yl)quinoline] | 1.88 | 0.3
Cc1nc(-c2cc(F)c(F)c(F)c2)c(-c2ccc3nccnc3c2)[nH]1 [Compound 96, 6-(2-Methyl-4-(3,4,5-trifluorophenyl)-1H-imidazol-5-yl)quinoxaline] | 2.43 | 0.44
Cc1nc(-c2cc(F)c(F)cc2F)c(-c2ccc3[nH]ncc3c2)[nH]1 [Compound 97, 5-(2-Methyl-4-(2,4,5-trifluorophenyl)-1H-imidazol-5-yl)-1H-indazole] | 0.54 | 0.1
Cc1nc(-c2cc(F)c(F)cc2F)c(-c2ccc3ncnn3c2)[nH]1 [Compound 98, 6-(2-Methyl-4-(2,4,5-trifluorophenyl)-1H-imidazol-5-yl)-[1,2,4]triazolo[1,5-a]pyridine] | 0.19 | 0.05
Cc1nc(-c2cc(F)c(F)cc2F)c(-c2ccc3ncsc3c2)[nH]1 [Compound 99, 6-(2-Methyl-4-(2,4,5-trifluorophenyl)-1H-imidazol-5-yl)benzo[d]thiazole] | 0.24 | 0.04
Cc1nc(-c2cc(F)c(F)cc2F)c(-c2ccc3ncccc3c2)[nH]1 [Compound 100, 6-(2-Methyl-4-(2,4,5-trifluorophenyl)-1H-imidazol-5-yl)quinoline] | 1.37 | 0.17
Cc1nc(-c2cccc(Cl)c2)c(-c2ccc3[nH]ncc3c2)[nH]1 [Compound 101, 5-(4-(3-Chlorophenyl)-2-methyl-1H-imidazol-5-yl)-1H-indazole] | 0.5 | 0.14
Cc1nc(-c2cccc(Cl)c2)c(-c2ccc3ncnn3c2)[nH]1 [Compound 103, 6-(4-(3-Chlorophenyl)-2-methyl-1H-imidazol-5-yl)-[1,2,4]triazolo[1,5-a]pyridine] | 0.69 | 0.13
Cc1nc(-c2cccc(Cl)c2)c(-c2ccc3nccn3c2)[nH]1 [Compound 104, 6-(4-(3-Chlorophenyl)-2-methyl-1H-imidazol-5-yl)imidazo[1,2-a]pyridine] | 0.51 | 0.08
CCc1nc(-c2ccc(F)c(C)c2)c(-c2ccc3[nH]ncc3c2)[nH]1 [Compound 106, 5-(2-Ethyl-4-(4-fluoro-3-methylphenyl)-1H-imidazol-5-yl)-1H-indazole] | 0.92 | 0.15
CCc1nc(-c2ccc(F)c(C)c2)c(-c2ccc3cn[nH]c3c2)[nH]1 [Compound 107, 6-(2-Ethyl-4-(4-fluoro-3-methylphenyl)-1H-imidazol-5-yl)-1H-indazole] | 1.85 | 0.34
CCc1nc(-c2ccc(F)c(C)c2)c(-c2ccc3ncnn3c2)[nH]1 [Compound 108, 6-(2-Ethyl-4-(4-fluoro-3-methylphenyl)-1H-imidazol-5-yl)-[1,2,4]triazolo[1,5-a]pyridine] | 0.4 | 0.08
CCc1nc(-c2ccc(F)c(C)c2)c(-c2ccc3ncsc3c2)[nH]1 [Compound 109, 6-(2-Ethyl-4-(4-fluoro-3-methylphenyl)-1H-imidazol-5-yl)benzo[d]thiazole] | 0.87 | 0.15
CCc1nc(-c2ccc(F)c(C)c2)c(-c2ccc3nccn3c2)[nH]1 [Compound 110, 6-(2-Ethyl-4-(4-fluoro-3-methylphenyl)-1H-imidazol-5-yl)imidazo[1,2-a]pyridine] | 1.05 | 0.25
CCc1nc(-c2ccc(F)c(C)c2)c(-c2ccc3ncccc3c2)[nH]1 [Compound 111, 6-(2-Ethyl-4-(4-fluoro-3-methylphenyl)-1H-imidazol-5-yl)quinoline] | 4.48 | 0.79
